# Target: T1, carboxyltransferase from S. aureus (SaCT) (Staphylococcus aureus, UniProt Q2FXM7+Q5HF73)
# T1 sequence (Q2FXM7 1-314): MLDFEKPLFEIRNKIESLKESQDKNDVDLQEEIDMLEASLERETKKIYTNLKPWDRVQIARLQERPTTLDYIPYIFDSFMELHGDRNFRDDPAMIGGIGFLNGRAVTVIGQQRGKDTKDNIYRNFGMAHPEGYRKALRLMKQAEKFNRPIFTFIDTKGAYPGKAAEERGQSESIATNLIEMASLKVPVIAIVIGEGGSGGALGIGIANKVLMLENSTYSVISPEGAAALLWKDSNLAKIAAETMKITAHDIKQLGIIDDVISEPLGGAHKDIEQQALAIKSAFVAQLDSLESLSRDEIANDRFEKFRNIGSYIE
# T1 sequence (Q5HF73 1-285): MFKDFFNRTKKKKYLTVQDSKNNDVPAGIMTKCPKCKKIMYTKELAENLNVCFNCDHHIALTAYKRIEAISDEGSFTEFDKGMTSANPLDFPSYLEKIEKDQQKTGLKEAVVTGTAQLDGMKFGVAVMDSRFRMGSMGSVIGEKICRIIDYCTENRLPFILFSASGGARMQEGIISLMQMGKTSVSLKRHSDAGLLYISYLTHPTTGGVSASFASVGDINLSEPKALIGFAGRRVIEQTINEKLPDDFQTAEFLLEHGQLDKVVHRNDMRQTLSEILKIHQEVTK
# Test: coupled citrate synthase / malate dehydrogenase assay at […] nm, reverse direction
# Format: biochemical
# Settings: 150 μM malonyl-CoA, 6 mM biocytin, pH 8.0
smiles,measurement,value
"C[C@H]1CC(=O)NC1=O [compound 4, (3S)-Methyl-pyrrolidine-2,5-dione]",% decrease in activity at 50 nM,65%
